Data reported in ChEMBL document CHEMBL3885861, “Open TG-GATES”.

Species on record: Rattus norvegicus
Test: Open TG-GATES - Regimen: Daily Repeat
Format: toxicity, organism-based, Sprague-Dawley
Design: regimen Daily Repeat, gender Male, age 6 weeks
Conditions: in vivo, po, 300 mg/kg, route gavage, dose level High; for APTT / Bas / Eos / Fbg / Hb / Ht / Lym / MCH / MCHC / MCV / Mono / Neu / PT / Plat / RBC / Ret / WBC: tissue Blood; for KIDNEY_L / KIDNEY_R / KIDNEY_TOTAL: tissue Kidney; for LIVER: tissue Liver; for A/G / ALP / ALT / AST / BUN / CRE / Ca / Cl / DBIL / GLC / IP / K / LDH / Na / PL / RALB / TBIL / TC / TG / TP / gamma-GTP: tissue Plasma

For `Brc1ccccc1` [BROMOBENZENE], the TERMINAL_BW (72 h, time 3 day) was 204.3 g, the APTT (72 h, time 3 day) was 21.2 s and the Bas (72 h, time 3 day) was 0.6%. The Eos (72 h, time 3 day) was 1%, the Fbg (72 h, time 3 day) was 259.2 mg/dL and the Hb (72 h, time 3 day) was 13.1 g/dL. It also gave a Ht (72 h, time 3 day) of 38.3%, a Lym (72 h, time 3 day) of 78.4% and an MCH (72 h, time 3 day) of 21.2 pg. For the same molecule, the MCHC (72 h, time 3 day) was 34.2%, the MCV (72 h, time 3 day) was 62.1 fL and the Mono (72 h, time 3 day) was 3%. The Neu (72 h, time 3 day) was 16.4%, the PT (72 h, time 3 day) was 12 s and the Plat (72 h, time 3 day) was 109.8 x10_4/uL. For the same molecule, the RBC (72 h, time 3 day) was 616.6 x10_4/ul, the Ret (72 h, time 3 day) was 4.2% and the WBC (72 h, time 3 day) was 105.2 x10_2/uL. The KIDNEY_L (72 h, time 3 day) was 0.9 g, the KIDNEY_R (72 h, time 3 day) was 0.9 g and the KIDNEY_TOTAL (72 h, time 3 day) was 1.8 g. For the same molecule, the LIVER (72 h, time 3 day) was 12 g, the A/G (72 h, time 3 day) was 0.9 and the ALP (72 h, time 3 day) was 1821.4 IU/L. It also gave an ALT (72 h, time 3 day) of 70.8 IU/L, an AST (72 h, time 3 day) of 110.6 IU/L and a BUN (72 h, time 3 day) of 12.4 mg/dL. The CRE (72 h, time 3 day) was 0.2 mg/dL, the Ca (72 h, time 3 day) was 10.5 mg/dL and the Cl (72 h, time 3 day) was 104.8 meq/L. It also gave a DBIL (72 h, time 3 day) of 0.02 mg/dL, a GLC (72 h, time 3 day) of 177.6 mg/dL and an IP (72 h, time 3 day) of 7 mg/dL. It also gave a K (72 h, time 3 day) of 4.1 meq/L, an LDH (72 h, time 3 day) of 124.2 IU/L and a Na (72 h, time 3 day) of 141.8 meq/L. It also gave a PL (72 h, time 3 day) of 184.6 mg/dL, an RALB (72 h, time 3 day) of 2.6 g/dL and a TBIL (72 h, time 3 day) of 0.08 mg/dL. For the same molecule, the TC (72 h, time 3 day) was 96.4 mg/dL, the TG (72 h, time 3 day) was 88.4 mg/dL and the TP (72 h, time 3 day) was 5.4 g/dL. The gamma-GTP (72 h, time 3 day) was 1.4 IU/L, the TERMINAL_BW ([…], time 7 day) was 239.4 g and the TERMINAL_BW ([…], time 14 day) was 287 g. For the same molecule, the TERMINAL_BW ([…], time 28 day) was 359.9 g, the APTT ([…], time 7 day) was 17.1 s and the Bas ([…], time 7 day) was 0%. The Eos ([…], time 7 day) was 0.6%, the Fbg ([…], time 7 day) was 278.2 mg/dL and the Hb ([…], time 7 day) was 12.6 g/dL. For the same molecule, the Ht ([…], time 7 day) was 36.8%, the Lym ([…], time 7 day) was 74.4% and the MCH ([…], time 7 day) was 21.3 pg. The MCHC ([…], time 7 day) was 34.3%, the MCV ([…], time 7 day) was 62.3 fL and the Mono ([…], time 7 day) was 3.2%. The Neu ([…], time 7 day) was 21.4%, the PT ([…], time 7 day) was 12.4 s and the Plat ([…], time 7 day) was 117.3 x10_4/uL. For the same molecule, the RBC ([…], time 7 day) was 591.2 x10_4/ul, the Ret ([…], time 7 day) was 6.9% and the WBC ([…], time 7 day) was 101.2 x10_2/uL. For the same molecule, the APTT ([…], time 14 day) was 18.6 s, the Bas ([…], time 14 day) was 0% and the Eos ([…], time 14 day) was 0.6%. It also gave a Fbg ([…], time 14 day) of 288.4 mg/dL, a Hb ([…], time 14 day) of 13.4 g/dL and a Ht ([…], time 14 day) of 39.2%. The Lym ([…], time 14 day) was 78.4%, the MCH ([…], time 14 day) was 20.3 pg and the MCHC ([…], time 14 day) was 34.1%. The MCV ([…], time 14 day) was 59.5 fL, the Mono ([…], time 14 day) was 2.6% and the Neu ([…], time 14 day) was 17.8%. For the same molecule, the PT ([…], time 14 day) was 12.2 s, the Plat ([…], time 14 day) was 118 x10_4/uL and the RBC ([…], time 14 day) was 658 x10_4/ul. The Ret ([…], time 14 day) was 5.1%, the WBC ([…], time 14 day) was 106.3 x10_2/uL and the APTT ([…], time 28 day) was 18.2 s. The Bas ([…], time 28 day) was 0%, the Eos ([…], time 28 day) was 1% and the Fbg ([…], time 28 day) was 295.8 mg/dL. For the same molecule, the Hb ([…], time 28 day) was 14.6 g/dL, the Ht ([…], time 28 day) was 42.5% and the Lym ([…], time 28 day) was 73.2%. The MCH ([…], time 28 day) was 19.1 pg, the MCHC ([…], time 28 day) was 34.4% and the MCV ([…], time 28 day) was 55.5 fL. It also gave a Mono ([…], time 28 day) of 2.6%, a Neu ([…], time 28 day) of 23% and a PT ([…], time 28 day) of 12.7 s. It also gave a Plat ([…], time 28 day) of 96.5 x10_4/uL, an RBC ([…], time 28 day) of 765 x10_4/ul and a Ret ([…], time 28 day) of 2.5%. For the same molecule, the WBC ([…], time 28 day) was 120.7 x10_2/uL, the KIDNEY_L ([…], time 7 day) was 1 g and the KIDNEY_R ([…], time 7 day) was 1 g. It also gave a KIDNEY_TOTAL ([…], time 7 day) of 2 g, a KIDNEY_L ([…], time 14 day) of 1.1 g and a KIDNEY_R ([…], time 14 day) of 1.1 g. It also gave a KIDNEY_TOTAL ([…], time 14 day) of 2.2 g, a KIDNEY_L ([…], time 28 day) of 1.5 g and a KIDNEY_R ([…], time 28 day) of 1.5 g. The KIDNEY_TOTAL ([…], time 28 day) was 2.9 g, the LIVER ([…], time 7 day) was 13.4 g and the LIVER ([…], time 14 day) was 15.2 g. The LIVER ([…], time 28 day) was 17.7 g, the A/G ([…], time 7 day) was 0.9 and the ALP ([…], time 7 day) was 1637 IU/L. It also gave an ALT ([…], time 7 day) of 44 IU/L, an AST ([…], time 7 day) of 65.2 IU/L and a BUN ([…], time 7 day) of 12.8 mg/dL. It also gave a CRE ([…], time 7 day) of 0.2 mg/dL, a Ca ([…], time 7 day) of 11.3 mg/dL and a Cl ([…], time 7 day) of 105.6 meq/L. The DBIL ([…], time 7 day) was 0.012 mg/dL, the GLC ([…], time 7 day) was 187.4 mg/dL and the IP ([…], time 7 day) was 7 mg/dL. The K ([…], time 7 day) was 4 meq/L, the LDH ([…], time 7 day) was 99.6 IU/L and the Na ([…], time 7 day) was 144.2 meq/L. It also gave a PL ([…], time 7 day) of 171.2 mg/dL, an RALB ([…], time 7 day) of 2.8 g/dL and a TBIL ([…], time 7 day) of 0.052 mg/dL. It also gave a TC ([…], time 7 day) of 88 mg/dL, a TG ([…], time 7 day) of 94.8 mg/dL and a TP ([…], time 7 day) of 6 g/dL. The gamma-GTP ([…], time 7 day) was 1 IU/L, the A/G ([…], time 14 day) was 0.8 and the ALP ([…], time 14 day) was 1442.4 IU/L. It also gave an ALT ([…], time 14 day) of 45.8 IU/L, an AST ([…], time 14 day) of 69.4 IU/L and a BUN ([…], time 14 day) of 15 mg/dL. The CRE ([…], time 14 day) was 0.2 mg/dL, the Ca ([…], time 14 day) was 10.8 mg/dL and the Cl ([…], time 14 day) was 106.4 meq/L. For the same molecule, the DBIL ([…], time 14 day) was 0.01 mg/dL, the GLC ([…], time 14 day) was 185.2 mg/dL and the IP ([…], time 14 day) was 6.4 mg/dL. It also gave a K ([…], time 14 day) of 4 meq/L, an LDH ([…], time 14 day) of 63.2 IU/L and a Na ([…], time 14 day) of 144 meq/L. For the same molecule, the PL ([…], time 14 day) was 180.4 mg/dL, the RALB ([…], time 14 day) was 2.8 g/dL and the TBIL ([…], time 14 day) was 0.04 mg/dL. For the same molecule, the TC ([…], time 14 day) was 89.4 mg/dL, the TG ([…], time 14 day) was 123.2 mg/dL and the TP ([…], time 14 day) was 6.1 g/dL. The gamma-GTP ([…], time 14 day) was 1.2 IU/L, the A/G ([…], time 28 day) was 0.8 and the ALP ([…], time 28 day) was 1183.4 IU/L. It also gave an ALT ([…], time 28 day) of 42.8 IU/L, an AST ([…], time 28 day) of 65.4 IU/L and a BUN ([…], time 28 day) of 15.2 mg/dL. It also gave a CRE ([…], time 28 day) of 0.2 mg/dL, a Ca ([…], time 28 day) of 10.4 mg/dL and a Cl ([…], time 28 day) of 106.8 meq/L. For the same molecule, the DBIL ([…], time 28 day) was 0.022 mg/dL, the GLC ([…], time 28 day) was 185.2 mg/dL and the IP ([…], time 28 day) was 5.6 mg/dL. The K ([…], time 28 day) was 4 meq/L, the LDH ([…], time 28 day) was 73 IU/L and the Na ([…], time 28 day) was 143.4 meq/L. It also gave a PL ([…], time 28 day) of 165.4 mg/dL, an RALB ([…], time 28 day) of 2.7 g/dL and a TBIL ([…], time 28 day) of 0.048 mg/dL. It also gave a TC ([…], time 28 day) of 79.8 mg/dL, a TG ([…], time 28 day) of 154.2 mg/dL and a TP ([…], time 28 day) of 6.2 g/dL. For the same molecule, the gamma-GTP ([…], time 28 day) was 1.2 IU/L.
